Test results taken from patent US20240199654A1, “CTLA-4 SMALL MOLECULE DEGRADATION AGENT AND APPLICATION THEREOF” (SUZHOU GUOKUANG PHARMTECH. CO., LTD., priority 2021, published 2024).
pIC50: −log10 of the molar value.

molecular target: T1, LRBA and CTLA-4 reporting system (Homo sapiens, UniProt P16410+P50851); assay: LRBA/CTLA-4 protein-protein interaction reporting system, dual luciferase assay in HEK293 cells; type: cell-based; conditions: HEK293 cells co-transfected with LRBA and CTLA-4 reporting system, 24 h after dosing; read-out: In vitro activity (IC50: concentration of compounds that inhibit 50% of reporting system activity)
T1 construct: expressed in transfected cells; host or cells: HEK293
T1 sequence (P16410 36-223): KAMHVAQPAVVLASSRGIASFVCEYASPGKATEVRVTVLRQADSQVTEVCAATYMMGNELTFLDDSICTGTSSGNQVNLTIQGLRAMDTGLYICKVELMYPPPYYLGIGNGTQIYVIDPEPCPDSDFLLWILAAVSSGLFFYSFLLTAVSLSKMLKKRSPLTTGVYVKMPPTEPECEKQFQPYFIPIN
T1 sequence (P50851 whole entry): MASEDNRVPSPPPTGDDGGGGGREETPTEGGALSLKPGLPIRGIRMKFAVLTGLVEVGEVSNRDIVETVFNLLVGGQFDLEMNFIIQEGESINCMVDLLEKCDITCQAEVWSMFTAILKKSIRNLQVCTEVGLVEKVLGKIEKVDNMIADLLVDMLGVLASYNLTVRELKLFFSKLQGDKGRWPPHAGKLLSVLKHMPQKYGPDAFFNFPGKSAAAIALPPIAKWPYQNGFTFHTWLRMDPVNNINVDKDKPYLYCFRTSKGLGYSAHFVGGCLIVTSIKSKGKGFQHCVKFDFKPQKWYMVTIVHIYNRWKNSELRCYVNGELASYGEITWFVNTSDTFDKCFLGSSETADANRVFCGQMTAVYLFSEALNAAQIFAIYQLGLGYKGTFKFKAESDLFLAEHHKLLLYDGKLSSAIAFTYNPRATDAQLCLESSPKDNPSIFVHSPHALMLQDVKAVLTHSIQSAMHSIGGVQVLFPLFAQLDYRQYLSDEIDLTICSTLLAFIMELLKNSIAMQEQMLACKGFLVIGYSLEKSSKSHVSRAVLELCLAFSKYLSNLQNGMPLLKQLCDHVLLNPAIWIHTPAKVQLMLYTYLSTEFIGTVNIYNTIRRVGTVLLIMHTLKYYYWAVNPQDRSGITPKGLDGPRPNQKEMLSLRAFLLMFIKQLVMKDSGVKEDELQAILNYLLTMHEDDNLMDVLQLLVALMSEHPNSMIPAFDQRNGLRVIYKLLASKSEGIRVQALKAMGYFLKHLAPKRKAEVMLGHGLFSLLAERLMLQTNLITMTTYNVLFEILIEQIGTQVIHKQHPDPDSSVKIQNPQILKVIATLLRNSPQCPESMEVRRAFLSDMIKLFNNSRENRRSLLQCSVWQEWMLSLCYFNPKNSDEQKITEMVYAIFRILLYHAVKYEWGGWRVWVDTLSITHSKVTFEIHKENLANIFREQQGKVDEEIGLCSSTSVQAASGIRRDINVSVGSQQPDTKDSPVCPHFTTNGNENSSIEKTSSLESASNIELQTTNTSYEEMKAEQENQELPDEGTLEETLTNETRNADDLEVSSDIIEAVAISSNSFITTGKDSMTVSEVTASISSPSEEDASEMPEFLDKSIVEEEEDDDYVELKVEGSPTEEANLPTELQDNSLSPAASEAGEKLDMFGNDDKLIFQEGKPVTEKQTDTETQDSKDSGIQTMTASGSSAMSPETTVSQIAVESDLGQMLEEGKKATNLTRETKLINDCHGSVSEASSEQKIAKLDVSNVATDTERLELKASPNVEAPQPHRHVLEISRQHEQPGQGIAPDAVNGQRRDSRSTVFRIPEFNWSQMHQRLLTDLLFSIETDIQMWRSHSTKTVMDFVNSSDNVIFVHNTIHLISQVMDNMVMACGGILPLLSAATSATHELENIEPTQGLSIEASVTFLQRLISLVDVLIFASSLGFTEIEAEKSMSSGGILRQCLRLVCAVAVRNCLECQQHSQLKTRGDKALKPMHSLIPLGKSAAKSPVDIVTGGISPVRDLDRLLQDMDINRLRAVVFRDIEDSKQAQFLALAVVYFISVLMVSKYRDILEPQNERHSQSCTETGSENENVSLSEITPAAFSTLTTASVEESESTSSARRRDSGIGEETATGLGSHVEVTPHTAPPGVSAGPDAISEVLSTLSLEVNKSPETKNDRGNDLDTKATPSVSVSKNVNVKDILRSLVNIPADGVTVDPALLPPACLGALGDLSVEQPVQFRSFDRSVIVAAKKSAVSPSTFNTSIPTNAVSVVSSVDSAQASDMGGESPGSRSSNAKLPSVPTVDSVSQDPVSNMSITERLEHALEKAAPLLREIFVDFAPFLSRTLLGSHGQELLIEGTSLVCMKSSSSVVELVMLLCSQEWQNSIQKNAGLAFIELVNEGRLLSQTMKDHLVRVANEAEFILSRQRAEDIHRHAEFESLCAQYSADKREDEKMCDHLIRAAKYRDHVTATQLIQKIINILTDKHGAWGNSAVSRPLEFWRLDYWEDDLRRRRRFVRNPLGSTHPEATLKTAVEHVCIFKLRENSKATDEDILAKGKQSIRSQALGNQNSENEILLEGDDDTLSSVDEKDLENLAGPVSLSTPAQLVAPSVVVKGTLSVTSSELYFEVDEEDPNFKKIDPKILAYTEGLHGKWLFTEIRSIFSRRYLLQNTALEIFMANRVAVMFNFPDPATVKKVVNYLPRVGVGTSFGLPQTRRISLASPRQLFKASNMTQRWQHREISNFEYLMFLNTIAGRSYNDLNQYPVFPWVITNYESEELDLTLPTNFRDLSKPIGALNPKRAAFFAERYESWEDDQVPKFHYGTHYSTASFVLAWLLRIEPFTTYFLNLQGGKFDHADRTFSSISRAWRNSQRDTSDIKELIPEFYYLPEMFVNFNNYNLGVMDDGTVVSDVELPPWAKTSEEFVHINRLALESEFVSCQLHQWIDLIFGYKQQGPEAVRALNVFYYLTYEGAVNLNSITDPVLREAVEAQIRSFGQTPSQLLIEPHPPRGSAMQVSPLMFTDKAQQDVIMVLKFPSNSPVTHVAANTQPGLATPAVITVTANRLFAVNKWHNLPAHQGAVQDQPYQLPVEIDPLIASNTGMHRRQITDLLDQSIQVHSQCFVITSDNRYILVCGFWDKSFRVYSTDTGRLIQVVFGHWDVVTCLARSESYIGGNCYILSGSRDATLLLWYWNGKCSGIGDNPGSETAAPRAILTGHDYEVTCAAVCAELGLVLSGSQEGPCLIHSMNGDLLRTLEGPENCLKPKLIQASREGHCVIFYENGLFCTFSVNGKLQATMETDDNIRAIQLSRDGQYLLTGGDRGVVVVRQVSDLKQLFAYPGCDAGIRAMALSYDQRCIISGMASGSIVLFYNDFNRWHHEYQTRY
Protocol: HEK293 cells were spread on 96-well plates, and LRBA and CTLA-4 reporting system were co-transfected into HEK293 cells after 24 h. After 24 h, different compounds with final concentrations of 0.01, 0.033, 0.10, 0.33, 1.00, 3.33, 10.00, 33.33, and 100.00 μM were added. 24 h after dosing, the cell culture medium was removed and the cells were washed with cold PBS. Then the activity of the compounds were detected by the dual luciferase assay kit, and IC50 values were calculated according to the results.
For the compounds with strong activity (IC50<200 nM), the degradation of CTLA-4 protein was further detected by Western Blot. • IC50: Concentration of compounds that inhibit 50% of reporting system activity The size of IC50 is divided into four levels: • ++++, IC50<200 nM; +++, IC50 is 200-1000 nM; ++, IC50 is 1000-2000 nM; +, IC50>2000 nM.

| pIC50 | SMILES |
| --- | --- |
| < 5.70 | c1ccc2cc(-c3ccnc(N4CCNCC4)n3)ccc2c1 [Comparing compound 1, reference compound] |
| > 6.70 | NCC1CCN(c2nccc(-c3cnc4ccccc4c3)n2)CC1 [Compound 1, (1-(4-(quinolin-3-yl)pyrimidin-2-yl)piperidin-4-yl)methylamine] |
| < 5.70 | O=CNCC1CCN(c2nccc(-c3cnc4ccccc4c3)n2)CC1 [Compound 2, N-((1-(4-(quinolin-3-yl)pyrimidin-2-yl)piperidin-4-yl)methyl)formamide] |
| < 5.70 | NCC1CCN(c2nccc(-c3ccc4ncccc4c3)n2)CC1 [Compound 3, (1-(4-(quinolin-6-yl)pyrimidin-2-yl)piperidin-4-yl)methylamine] |
| < 5.70 | O=CNCC1CCN(c2nccc(-c3ccc4ncccc4c3)n2)CC1 [Compound 4, N-((1-(4-(quinolin-6-yl)pyrimidin-2-yl)piperidin-4-yl)methyl)formamide] |
| < 5.70 | NCC1CCN(c2nccc(-c3ccc4ccccc4n3)n2)CC1 [Compound 5, (1-(4-(quinolin-2-yl)pyrimidin-2-yl)piperidin-4-yl)methylamine] |
| 6.00 to 6.70 | NCC1CCN(c2nccc(-c3cnc4ccc(F)cc4c3)n2)CC1 [Compound 7, (1-(4-(6-fluoroquinolin-3-yl)pyrimidin-2-yl)piperidin-4-yl)methylamine] |
| 5.70 to 6.00 | NCC1CCN(c2nccc(-c3cc4ccccc4nc3N3CCC(CN)CC3)n2)CC1 [Compound 8, (1-(3-(2-(4-(aminomethyl)piperidin-1-yl)pyrimidin-4-yl)quinolin-2-yl)piperidin-4-yl)methylamine] |
| > 6.70 | COc1nc2ccccc2cc1-c1ccnc(N2CCC(CN)CC2)n1 [Compound 9, (1-(4-(2-methoxyquinolin-3-yl)pyrimidin-2-yl)piperidin-4-yl)methylamine] |
| > 6.70 | NCC1CCN(c2nccc(-c3cc4ccccc4nc3O)n2)CC1 [Compound 10, 3-(2-(4-(aminomethyl)piperidin-1-yl)pyrimidin-4-yl)quinolin-2-ol] |
| > 6.70 | [2H]c1nc2ccccc2cc1-c1ccnc(N2CCC(CN)CC2)n1 [Compound 11, (1-(4-(quinolin-3-yl-2-d)pyrimidin-2-yl)piperidin-4-yl)methylamine] |
| < 5.70 | NCC1CCN(c2cc(-c3cnc4ccccc4c3)ccn2)CC1 [Compound 12, (1-(4-(quinolin-3-yl)pyridin-2-yl)piperidin-4-yl)methylamine] |
| < 5.70 | NCC1CCN(c2nccc(-c3cc(=O)c4ccccc4o3)n2)CC1 [Compound 13, 2-(2-(4-(aminomethyl)piperidin-1-yl)pyrimidin-4-yl)-4hydro-benzopyran-4-one] |
| < 5.70 | NCC1CCN(c2cccc(-c3cnc4ccccc4c3)n2)CC1 [Compound 14, (1-(6-(quinolin-3-yl)pyridin-2-yl)piperidin-4-yl)methylamine] |
| < 5.70 | NCC1CCN(c2cccc(-c3cnc4ccccc4c3)c2)CC1 [Compound 15, (1-(3-(quinolin-3-yl)phenyl)piperidin-4-yl)methylamine] |
| < 5.70 | NCC1CCN(c2nccc(-c3cc4ccccc4nc3N)n2)CC1 [Compound 16, 3-(2-(4-(aminomethyl)piperidin-1-yl)pyrimidin-4-yl)quinolin-2-amine] |
| 6.00 to 6.70 | NC1CCN(c2nccc(-c3cnc4ccccc4c3)n2)CC1 [Compound 17, 1-(4-(quinolin-3-yl)pyrimidin-2-yl)piperidine-4-amine] |
| 6.00 to 6.70 | NCCC1CCN(c2nccc(-c3cnc4ccccc4c3)n2)CC1 [Compound 19, 2-(1-(4-(quinolin-3-yl)pyrimidin-2-yl)piperidin-4-yl)ethylamine] |
| < 5.70 | OCC1CCN(c2nccc(-c3cnc4ccccc4c3)n2)CC1 [Compound 20, (1-(4-(quinolin-3-yl)pyrimidin-2-yl)piperidin-4-yl)methanol] |
| < 5.70 | OCCC1CCN(c2nccc(-c3cnc4ccccc4c3)n2)CC1 [Compound 21, (1-(4-(quinolin-3-yl)pyrimidin-2-yl)piperidin-4-yl)ethanol] |
| < 5.70 | C[C@@H]1CN(c2nccc(-c3cnc4ccccc4c3)n2)C[C@H](C)N1 [Compound 22, 3-(2-((3S,5R)-3,5-dimethylpiperazin-1-yl)pyrimidin-4-yl)quinoline] |
| < 5.70 | CN1CCN(c2nccc(-c3cnc4ccccc4c3)n2)CC1 [Compound 23, 3-(2-(4-methylpiperazin-1-yl)pyrimidin-4-yl)quinoline] |
| < 5.70 | c1ccc2ncc(-c3ccnc(N4CCCNCC4)n3)cc2c1 [Compound 24, 3-(2-(1,4-diaza-1-yl)pyrimidin-4-yl)quinoline] |
| > 6.70 | NCCNc1nccc(-c2cnc3ccccc3c2)n1 [Compound 26, N-(4-(quinolin-3-yl)pyrimidin-2-yl)ethane-1,2-diamine] |

| pIC50 | SMILES |
| --- | --- |
| 5.70 to 6.00 | NCCCNc1nccc(-c2cnc3ccccc3c2)n1 [Compound 27, N-(4-(quinolin-3-yl)pyrimidin-2-yl)propane-1,3-diamine] |
| < 5.70 | c1cc(-c2cnc3c(c2)OCCO3)nc(N2CCNCC2)n1 [Compound 28, 7-(2-(piperazin-1-yl)pyrimidin-4-yl)-2,3-dihydro-[1,4]dioxy[2,3-b]pyridine] |
| < 5.70 | c1cc(-c2ccc3c(c2)OCCO3)nc(N2CCNCC2)n1 [Compound 29, 4-(2,3-dihydrobenzo[b][1,4]dioxin-6-yl)-2-(piperazin-1-yl)pyrimidine] |
| < 5.70 | COc1cc(-c2ccnc(N3CCNCC3)n2)cnc1OC [Compound 30, 4-(5,6-dimethoxy-pyridin-3-yl)-2-piperazin-1-yl-pyrimidine] |
| < 5.70 | COc1ccc(-c2ccnc(N3CCNCC3)n2)cc1OC [Compound 31, 4-(3,4-dimethoxy-phenyl)-2-piperazin-1-yl-pyrimidine] |
| 6.00 to 6.70 | c1ccc2c(-c3ccnc(N4CCNCC4)n3)c[nH]c2c1 [Compound 32, 3-(2-(piperazin-1-yl)pyrimidin-4-yl)-1H-indole] |
| 6.00 to 6.70 | c1ccc2c(-c3ccnc(N4CCNCC4)n3)coc2c1 [Compound 33, 4-(benzofuran-3-yl)-2-(piperazin-1-yl)pyrimidine] |
| < 5.70 | COc1cc(-c2ccnc(N3CCNCC3)n2)cnc1O [Compound 34, 3-methoxy-5-(2-piperazin-1-yl-pyrimidin-4-yl)-pyridin-2-ol] |
| > 6.70 | c1ccc2ncc(-c3ncnc(N4CCNCC4)n3)cc2c1 [Compound 35, 3-(4-(piperazin-1-yl)-1,3,5-triazin-2-yl)quinoline] |
| 6.00 to 6.70 | c1ccc2ncc(-c3nc(N4CCNCC4)nc4ccccc34)cc2c1 [Compound 36, 2-(piperazin-1-yl)-4-(quinolin-3-yl)quinazoline] |
| 6.00 to 6.70 | c1ccc2ncc(-c3nc(N4CCNCC4)nc4c3CCCC4)cc2c1 [Compound 37, 2-(piperazin-1-yl)-4-(quinolin-3-yl)-5,6,7,8-tetrahydroquinazoline] |
| > 6.70 | Nc1cnc(N2CCNCC2)nc1-c1cnc2ccccc2c1 [Compound 38, 3-(5-amino-2-(piperazin-1-yl)pyrimidin-4-yl)quinoline] |
| > 6.70 | COc1cc(-c2cnc3ccccc3c2)nc(N2CCNCC2)n1 [Compound 39, 3-(6-methoxy-2-(piperazin-1-yl)pyrimidin-4-yl)quinoline] |
| > 6.70 | FC(F)(F)c1cc(-c2cnc3ccccc3c2)nc(N2CCNCC2)n1 [Compound 40, 3-(2-(piperazin-1-yl)-6-(trifluoromethyl)pyrimidin-4-yl)quinoline] |
| 6.00 to 6.70 | c1ccc2ncc(-c3cc4nccn4c(N4CCNCC4)n3)cc2c1 [Compound 41, 3-(5-(piperazin-1-yl)imidazo[1,2-c]pyrimidin-7-yl)quinoline] |
| > 6.70 | N#Cc1cc(-c2cnc3ccccc3c2)nc(N2CCNCC2)n1 [Compound 42, 3-(6-cyano-2-(piperazin-1-yl)pyrimidin-4-yl)quinoline] |
| > 6.70 | COc1cnc(N2CCNCC2)nc1-c1cnc2ccccc2c1 [Compound 43, 3-(5-methoxy-2-(piperazin-1-yl)pyrimidin-4-yl)quinoline] |
| 6.00 to 6.70 | Cn1cnc2c(-c3cnc4ccccc4c3)nc(N3CCNCC3)nc21 [Compound 45, 3-(9-methyl-2-(piperazin-1-yl)-9H-purin-6-yl)quinoline] |
| > 6.70 | Fc1cnc(N2CCNCC2)nc1-c1cnc2ccccc2c1 [Compound 46, 3-(5-fluoro-2-(piperazin-1-yl)pyrimidin-4-yl)quinoline] |
| > 6.70 | Nc1cc(-c2cnc3ccccc3c2)nc(N2CCNCC2)n1 [Compound 47, 2-(piperazin-1-yl)-6-(quinolin-3-yl)pyrimidin-4-amine] |
| 5.70 to 6.00 | Nc1cc(N2CCNCC2)nc(-c2cnc3ccccc3c2)n1 [Compound 48, 6-(piperazin-1-yl)-2-(quinolin-3-yl)pyrimidin-4-amine] |
| 6.00 to 6.70 | c1ccc2ncc(-c3cc(N4CCOCC4)nc(N4CCNCC4)n3)cc2c1 [Compound 49, 4-(2-(piperazin-1-yl)-6-(quinolin-3-yl)pyrimidin-4-yl)morpholine] |
| > 6.70 | c1ccc2ncc(-c3nc(N4CCNCC4)ncc3C3CC3)cc2c1 [Compound 50, 3-(5-cyclopropyl-2-(piperazin-1-yl)pyrimidin-4-yl)quinoline] |
| > 6.70 | COc1ccc(-c2cc(-c3cnc4ccccc4c3)nc(N3CCNCC3)n2)cc1 [Compound 51, 3-(6-(4-methoxyphenyl)-2-(piperazin-1-yl)pyrimidin-4-yl)quinoline] |
